Measurements published in US8933018B2, “Boron containing polybasic bacterial efflux pump inhibitors and therapeutic uses thereof” (priority 2011, dated 2015).
Like-named read-outs stand apart in the source and are kept apart here.

Tests used:
[1] = tested on: P. aeruginosa, PAM1723, overexpressing the MexAB-OprM efflux pump; type: cell-based, Pseudomonas aeruginosa; conditions: lowest EPI concentration giving antibacterial activity with levofloxacin at 1/8 of its MIC, MHB, 20 h at 35° C.
Procedure, shortened: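 Checkerboard microdilution in Mueller Hinton Broth, with EPI concentrations varied along one axis. The inoculum was 5 times 10^5 CFU/ml from early-log culture. Plates were incubated 20 h at 35° C, and growth was read at 650 nm and by visual inspection.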

[2] = tested on: P. aeruginosa PAM3062, which overexpresses the MexAB-OprM efflux pump; type: in vivo, Pseudomonas aeruginosa; conditions: neutropenic rats, lung, 1.5 hr IV infusion, 24 hours after start of treatment
Description: Rats are made neutropenic by administration of a 75 mg/kg dose of cyclophosphamide 2 days prior to infection. Immediately prior to infection, rats are anesthetized with isoflurane. Lung infection is established by intratracheal instillation of ˜1×10^7 CFU/lung. P. aeruginosa PAM3062, which overexpresses the MexAB-OprM efflux pump, is used for infection. All treatments are initiated 4 hours after infection and are administered by 1.5 hr IV infusion twice daily. Rats are sacrificed 24 hours after the start of treatment; lungs are homogenized, serially diluted, and plated to determine colony counts.

| SMILES | MPC8 (Minimum Potentiating Concentration) [1] | Δlog CFU ([2]; levofloxacin 100 (50 BID) mg/kg + EPI 16 (8 BID) mg/kg 24 hr dose) | Δlog CFU ([2]; levofloxacin 100 (50 BID) mg/kg + EPI 20 (10 BID) mg/kg 24 hr dose) | Δlog CFU ([2]; levofloxacin 100 (50 BID) mg/kg + EPI 10 (5 BID) mg/kg 24 hr dose) |
| --- | --- | --- | --- | --- |
| NCCN(CCN)C(=O)CC[C@H](N)C(=O)N[C@H](CCc1ccc(C(F)(F)F)cc1)C(=O)Nc1ccc2c(c1)B(O)OC2 [Compound 6, (S)-2-amino-N5,N5-bis(2-aminoethyl)-N1-((R)-1-(1-hydroxy-1,3-dihydrobenzo[c][1,2]oxaborol-6-ylamino)-1-oxo-4-(4-(trifluoromethyl)phenyl)butan-2-yl)pentanediamide] | B (B = MPC8 of 2.5 μg/ml to less than 10 μg/mL.) | −2.99 | – | – |
| NCCN(CCN)C(=O)CC[C@H](N)C(=O)N[C@H](CCc1ccc(C(F)(F)F)cc1)C(=O)Nc1cccc(B(O)O)c1 [Compound 14, 3-((R)-2-((S)-2-amino-5-(bis(2-aminoethyl)amino)-5-oxopentanamido)-4-(4-(trifluoromethyl)phenyl)butanamido)phenylboronic acid] | B (B = MPC8 of 2.5 μg/ml to less than 10 μg/mL.) | – | −1.13 | – |
| CC1(C)OB(O)c2cc(NC(=O)[C@@H](Cc3ccc(C(F)(F)F)cc3)NC(=O)[C@@H](N)CCC(=O)N(CCN)CCN)ccc21 [Compound 20, (S)-2-Amino-N5,N5-bis(2-aminoethyl)-N1-((R)-1-(1-hydroxy-3,3-dimethyl-1,3-dihydrobenzo[c][1,2]oxaborol-6-ylamino)-1-oxo-3-(4-(trifluoromethyl)phenyl)propan-2-yl)pentanediamide] | A (A = MPC8 of less than 2.5 μg/mL.) | – | – | −1.75 |
